Test results published in PubChem BioAssay (NCI).
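Five compound concentrations were applied to cells in 96-well plates for 48 hours; endpoints were derived by simple linear interpolation of the resulting dose-response curve. The concentration for full growth arrest is given as TGI.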 Where a SMILES comes first, the peptide text is derived from it. The star is where a group is joined. Cbz = O=C(OCc1ccccc1)*; OBn = c1ccc(CO*)cc1

Assays:
Assay in all cases: DTP human tumour cell line panel, 48 h
[1] = tested on: MOLT-4 leukemia
[2] = tested on: NCI-H522 lung
[3] = tested on: PC-3 prostate
[4] = tested on: SF-268 CNS
[5] = tested on: SN12C renal
[6] = tested on: SW-620 colon
[7] = tested on: UACC-62 melanoma
[8] = tested on: A498 renal
[9] = tested on: NCI-H460 lung
[10] = tested on: HS 578T breast

Compound	TGI [1] [µM]	TGI [2] [µM]	TGI [3] [µM]	TGI [4] [µM]	TGI [5] [µM]	TGI [6] [µM]	TGI [7] [µM]	TGI [8] [µM]	TGI [9] [µM]	TGI [10] [µM]
CCc1nnc(CC)n1NCCCC(=O)O	> 100	> 100	> 100	> 100	> 100	> 100	> 100	–	–	–
CC(=O)OCC(=O)[C@@]1(O)CC[C@H]2[C@@H]3CCC4=CC(=O)[C@H](C)C[C@]4(C)[C@H]3[C@@H](O)C[C@@]21C	–	> 100	–	> 100	> 100	> 100	> 100	> 100	> 100	–
COC(=O)[C@H](Cc1ccccc1)NC(=O)NCCN(CCNC(=O)N[C@@H](Cc1ccccc1)C(=O)OC)C(=O)N[C@@H](Cc1ccccc1)C(=O)OC	45	29.6	40.6	31.5	–	43.8	49.8	> 82.7	34.8	45.3
O=C(O)C1C(C(=O)O)C2C(=O)C=CC1N2Cc1ccccc1 (stereo unspecified)	9.18	3.78	18.8	11.3	5.47	11.6	21.3	42.6	5.1	6.1
CC1CC2OC(=O)C3CC(O)CC(=C23)[C@@]12C[C@@H](c1ccoc1)OC2=O (stereo partly specified)	> 100	> 100	–	> 100	> 100	> 100	> 100	–	> 100	–
COc1ccc(/C=C2/C(C)=NN(c3cccc(Cl)c3)/C2=N/c2nc3ccccc3s2)cc1	63.8	35.2	38	66.9	–	52	–	62.4	43.2	66.1
CCOC(=O)c1ccc(C(=O)OCC)n1-c1cc2cc(c1)CSCc1cc(cc(-n3c(C(=O)OCC)ccc3C(=O)OCC)c1)CSC2	> 10	> 10	> 10	> 10	> 10	> 10	> 10	–	> 10	> 10
COC(=O)CNC(=O)C(C)NC(=O)C(CC(=O)OCc1ccccc1)NC(=O)OCc1ccccc1 (stereo not drawn) (Cbz-Asp(OBn)-Ala-Gly-OMe; configuration not given here)	> 100	> 100	> 100	–	> 100	> 100	> 100	–	> 100	> 100
O=P(O)(OCC(O)O)OCC(O)O	> 100	> 100	–	> 100	–	> 100	–	> 100	> 100	–
O=c1n(/N=C/c2ccccc2)c(=O)n2n1C1C=CC2CC1	> 100	–	> 100	> 100	> 100	> 100	> 100	> 100	> 100	> 100
CCOC(=O)/C(N=Nc1ccc(-n2c(C)nc3ccccc3c2=O)cc1)=C(/C)O	64.1	–	> 100	> 100	> 100	> 100	> 100	> 100	> 100	63.6
CCCCCCn1c(SCC)c2ccccc2c1-c1nc(F)nc(F)n1	> 100	> 100	–	> 100	> 100	> 100	–	–	> 100	–
C/C(CN1C(=O)c2ccccc2C1=O)=N\NS(=O)(=O)c1ccc(Br)cc1	> 100	> 100	–	> 100	> 100	> 100	> 100	> 100	> 100	–
NCCCCNCCCN1CC1	–	19.9	> 100	> 100	–	> 100	91.1	1.84	> 100	2.14
Cc1nc2sc(CCl)nn2c(=O)c1Cl	26.7	12.4	25.1	33.4	26.6	25.6	36.2	–	25.3	47.3
Cn1c(O)c(C(=O)Nc2cccs2)c(=O)[nH]c1=S	61.7	27.6	–	41.9	74.6	87.6	27.2	35.8	43.7	–
NC(=S)NNC(=O)/C(=C/c1ccc(/C=C(\NC(=O)c2ccccc2)C(=O)NNC(N)=S)cc1)NC(=O)c1ccccc1	> 50.8	> 71.1	–	> 100	> 100	> 100	> 100	> 100	> 100	–
COc1ccc(OC)c2sc(N3C(=O)/C(=C/Cc4ccco4)N=C3c3ccccc3)nc12	70.9	–	71.5	> 100	80	> 100	51.1	> 100	> 100	> 100
COc1cc(/C=C/C(=O)c2sc(-n3nc(-c4ccccc4)cc3-c3ccccc3)nc2C)ccc1O	> 100	> 100	–	> 100	> 100	> 100	> 100	> 100	> 100	–
Cn1nc(Cc2ccc(Cl)cc2)n(N)c1=O	> 100	–	> 100	> 100	> 100	> 100	> 100	> 100	> 100	–
CC(C)=CCCC1(C)C=Cc2c(c(C)cc3c2[nH]c2cc(O)ccc23)O1 (stereo unspecified)	> 25	> 25	–	> 25	> 25	> 25	> 25	–	> 25	–
O=S(=O)([O-])[O-].[Fe+2].c1ccc(/C(=N\Nc2ccccn2)c2ccccn2)cc1	6.13	3.55	–	19.3	9.69	11.2	5.29	24.2	8.55	–
CC1C2CC(CC(=O)N2)C1(C)C (stereo unspecified)	–	> 100	> 100	> 100	> 100	> 100	> 100	> 100	> 100	> 100
CCOC(C[C@H](O)[C@H]1COC(=S)S1)OCC	–	> 100	–	> 100	> 100	> 100	> 100	–	> 100	–
